According to patent publication US12076432B2, “Method of repairing oxidatively treated hair” (Conopco, Inc., priority 2018, dated 2024):

Legend:
[1] = Denaturation temperature (Td) by DSC of bleached hair after soak in 1% aqueous N-acetyl amino acid solution; set-up: Denaturation Temperature Td (n = 3): unit not given here; conditions: hair soaked 30 minutes in 1% aqueous solution; for Denaturation Temperature Td (n = 3): DSC, no rinse; for Difference from control (Td): vs Control 1 or Control 2 (twice bleached hair), in °C (unit assumed)
Method: Hair that has been damaged has internal protein with a reduced denaturation temperature compared to that of virgin hair. The reduction in denaturation temperature is attributed to a degradation of the internal hair cortex proteins.
Hair damage can be measured in different ways. This invention focusses on the structural integrity of hair cortex proteins, as can be determined by Differential Scanning Calorimetry.
(§1) Hair was bleached for 30 min with Platine Precision White Compact Lightening Powder (L'Oreal Professionnel Paris, Paris, France) mixed with 9% cream peroxide, 30 ‘vol’ (Excel GS Ltd, UK) (60 g of powder mixed with 120 g cream peroxide). Hair was then rinsed with water for 2 minutes. This procedure was repeated on the same hair to produce twice bleached hair.
(§2) In the following examples, compositions A-C are comparative examples and 1-6 are in accordance with the invention. The compositions are 1% aqueous solutions of various N-Acetyl amino acids, prepared by adding the N-acetyl amino acid to water with stirring.
In the following experiments, Control 1 and 2 were from two different batches of twice bleached hair. They were dialysed with water before being used.
(§3) Twice bleached dark brown European hair was soaked for 30 minutes in 1% aqueous solutions of various N-Acetyl amino acids. The hair was then removed from the solution. Clippings from a few fibres were then taken and the denaturation temperature (Td) was measured using DSC.

[2] = Denaturation temperature (Td) by DSC of soaked bleached hair after subsequent rinse step; conditions: for Difference from control (Td): after soak and 30 seconds rinse, vs Control 1 or Control 2; for Td (n = 3): after soak, rinsed in running water for 30 seconds, DSC
Method: as §1, §2, §3
The effect of a subsequent rinse step was determined.
(§4) The switches from experiment 1 were rinsed in running water for 30 seconds.

[3] = Denaturation temperature (Td) by DSC of soaked and rinsed bleached hair after wash with base wash; conditions: after soak; for Difference from control (Td): rinse and wash with 14% SLES, vs Control (DB) or Control 2; for Td (n = 3): rinse and wash with base wash (14% SLES solution), DSC
Method: as §1, §2, §3, §4
The rinsed switches of experiment 2 were washed with base wash (14% SLES solution) and DSC performed.
Hair was washed with a cleansing shampoo using the following method:—
The hair fibres were held under running water for 30 seconds, shampoo applied at a dose of 0.1 ml of shampoo per 1 g of hair and rubbed into the hair for 30 seconds. Excess lather was removed by holding under running water for 30 seconds and the shampoo stage repeated. The hair was rinsed under running water for 1 minute.

SMILES	Denaturation Temperature Td (n = 3) [1]	Difference from control (Td) [1]	Difference from control (Td) [2] [°C]	Td (n = 3) [2]	Difference from control (Td) [3] [°C]	Td (n = 3) [3]
CC(=O)N[C@@H](C)C(=O)O [N-Acetyl Alanine]	156.00	7.4	4.2	152.99	2.76	151.11
CC(=O)N[C@@H](CCCNC(=N)N)C(=O)O [N-Acetyl Arginine, reference compound]	148.57	−0.03				
CC(=O)N[C@@H](CS)C(=O)O [N-Acetyl Cysteine, reference compound]	149.27	0.67				
CC(=O)N[C@@H](CCC(=O)O)C(=O)O [N-Acetyl Glutamic acid]	154.69	6.09	3.89	152.67	2.9	151.26
CC(=O)N[C@@H](CCC(N)=O)C(=O)O [N-Acetyl Glutamine]	155.15	6.55	1.97	150.75	2.5	150.85
CC(=O)N[C@@H](Cc1c[nH]cn1)C(=O)O [N-Acetyl Histidine]	148.08	2.51	1.64	147.76	1.93	147.65
CSCC[C@H](NC(C)=O)C(=O)O [N-Acetyl Methionine]	153.36	7.79	3.85	149.97	5.42	151.14
CC(=O)N1CCC[C@H]1C(=O)O [N-Acetyl Proline]	154.46	5.86	2.16	150.95	1.08	149.43
CC(=O)N[C@@H](CO)C(=O)O [N-Acetyl Serine]	156.25	7.65	3.02	151.80		
